Laboratory results as given in US9150583B2 (Boehringer Ingelheim International GmbH, priority 2011, dated 2015).

Columns and labels:
[1] = molecular target: Recombinant human CETP (Homo sapiens (Human), UniProt P11597); test: CETP in vitro assay (fluorometric, Roar Biomedical); type: biochemical; details: 3 hours at 37° C., compound concentrations between 1 nM and 30 μM, read-out: IC50 values for inhibition of CETP
Experimental: CETP inhibitory activity of compounds of the present invention can be determined in a fluorometric assay purchased from Roar Biomedical, Inc. (New York, N.Y., USA). […] Recombinant human CETP was partially purified from medium conditioned by CETP expressing CHO cells. In a 384 well format 2.5 μl of compound solution in DMSO was combined with 2 μl of donor solution, 2 μl of acceptor solution and 0.8 μl of recombinant human CETP solution in a total volume of 100 μl with assay buffer and incubated for 3 hours at 37° C. The fluorescence intensity was measured at excitation wavelength of 485 nm and emission wavelength of 535 nm. IC50 values are calculated from dose effect curves from compound concentrations between 1 nM and 30 μM.

[2] = Assay for metabolic degradation; type: in vitro ADME; details: pH 7.6; pooled human liver microsomes, 37° C., microsomal protein 1 mg/ml, test compound 1 μM, NADPH 1 mM; read-out: half-life (t½) values for human liver microsomal metabolic degradation
Experimental: Assay for Metabolic Degradation
The metabolic degradation of the test compound is assayed at 37° C. with pooled human liver microsomes. The final incubation volume of 100 μl per time point contains TRIS buffer pH 7.6 at room temperature (0.1 M), magnesium chloride (5 mM), microsomal protein (1 mg/ml) and the test compound at a final concentration of 1 μM.
Following a short preincubation period at 37° C., the reactions were initiated by addition of beta-nicotinamide adenine dinucleotide phosphate, reduced form (NADPH, 1 mM) and terminated by transferring an aliquot into solvent after different time points. Additionally, the NADPH-independent degradation was monitored in incubations without NADPH, terminated at the last time point. The quenched incubations are pelleted by centrifugation (10000 g, 5 min). An aliquot of the supernatant is assayed by LC-MS/MS for the amount of parent compound. The half-life (t ½) is determined by the slope of the semilogarithmic plot of the concentration-time profile.

Sequence of Recombinant human CETP (P11597 18-493): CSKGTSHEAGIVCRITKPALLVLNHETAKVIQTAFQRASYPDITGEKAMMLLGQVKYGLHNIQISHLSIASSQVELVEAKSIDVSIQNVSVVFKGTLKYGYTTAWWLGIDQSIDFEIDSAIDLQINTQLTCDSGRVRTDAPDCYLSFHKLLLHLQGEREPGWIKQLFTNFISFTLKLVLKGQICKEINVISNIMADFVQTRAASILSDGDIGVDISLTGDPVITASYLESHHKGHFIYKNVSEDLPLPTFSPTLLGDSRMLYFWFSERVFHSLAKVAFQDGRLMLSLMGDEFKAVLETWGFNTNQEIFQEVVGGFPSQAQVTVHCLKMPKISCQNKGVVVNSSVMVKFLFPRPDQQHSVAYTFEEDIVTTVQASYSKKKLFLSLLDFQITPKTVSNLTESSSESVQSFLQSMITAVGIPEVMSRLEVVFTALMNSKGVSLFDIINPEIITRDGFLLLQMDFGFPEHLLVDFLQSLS

Compound | IC50 [1] [nM] | half-life at 1 μM [2] [h]
COc1cc([C@H]2OC3(CCOCC3)c3c2c(C(C)C)nc2c3[C@@H](O)CC3(CC3)C2)ccc1C(F)(F)F [Example 3, (3R,9S)-4-isopropyl-7,7-(ethan-1,2-diyl)-3-(3-methoxy-4-(trifluoromethyl)phenyl)-2′,3,5′,6,6,7,8,9-octahydro-3H-spiro[furo[3,4-c]quinoline-1,4′-pyran]-9-ol] | 11 | 
CC(C)c1nc2c(c3c1[C@@H](c1ccc(C(F)(F)F)c(C#N)c1)OC31CCOCC1)[C@@H](O)CC1(CC1)[C@H]2O [Example 6, 5-((3R,6R,9S)-6,9-dihydroxy-4-isopropyl-7,7-(ethan-1,2-diyl)-2′,3′,5′,6,6′,7,8,9-octahydro-3H-spiro[furo[3,4-c]quinoline-1,4′-pyran]-3-yl)-2-(trifluoromethyl)benzonitrile] | 43 | 
CC(C)c1nc2c(c3c1[C@@H](c1ccc(C(F)(F)F)c(C#N)c1)OC31CCOCC1)[C@@H](O)CC1(CC1)C2 [Example 2] | 18 | > 2.17
COc1cc([C@H]2OC3(CCOCC3)c3c2c(C(C)C)nc2c3[C@@H](O)CC3(CC3)[C@H]2O)ccc1C(F)(F)F [Example 7, (3R,6R,9S)-4-isopropyl-7,7-(ethan-1,2-diyl)-3-(3-methoxy-4-(trifluoromethyl)phenyl)-2′,3′,5′,6,6′,7,8,9-octahydro-3H-spiro[furo[3,4-c]quinoline-1,4′-pyran]-6,9-diol] | 11 | 
CC(C)c1nc2c(c3c1[C@@H](c1ccc(C(F)(F)F)cc1)OC31CCOCC1)[C@@H](O)CC1(CC1)C2 [Example 1, (3R,9S)-4-isopropyl-7,7-(ethan-1,2-diyl)-3-(4-(trifluoromethyl)phenyl)-2′,3′,5′,6,6′,7,8,9-octahydro-3H-spiro[furo[3,4-c]quinoline-1,4′-pyran]-9-ol] | 15 | > 2.17

Further lines, results first:

IC50 [1] [nM] | half-life at 1 μM [2] [h] | Compound
90 |  | CC(C)c1nc2c(c3c1[C@@H](c1ccc(C(F)(F)F)nc1)OC31CCOCC1)[C@@H](O)CC1(CC1)C2 [Example 4]
9 | 0.95 | CC(C)c1nc2c(c3c1[C@@H](c1ccc(C(F)(F)F)cc1)OC31CCOCC1)[C@@H](O)CC1(CC1)[C@H]2O [Example 5, (3R,6R,9S)-4-isopropyl-7,7-(ethan-1,2-diyl)-3-(4-(trifluoromethyl)phenyl)-2′,3′,5′,6,6′,7,8,9-octahydro-3H-spiro[furo[3,4-c]quinoline-1,4′-pyran]-6,9-diol]
 | > 2.17 | CC(C)c1nc2c(c3c1[C@@H](c1ccc(C(F)(F)F)nc1)OC31CCOCC1)[C@@H](O)CC1(CC1)[C@H]2O [Example 8, (3R,6R,9S)-4-isopropyl-7,7-(ethan-1,2-diyl)-3-(6-(trifluoromethyl)pyridin-3-yl)-2′,3′,5′,6,6′,7,8,9-octahydro-3H-spiro[furo[3,4-c]quinoline-1,4′-pyran]-6,9-diol]
